Test results reported in patent US20130065964A1, “PERITONEAL DIALYSIS SOLUTION” (UNIVERSIDAD DE CASTILLA LA MANCHA, priority 2010, published 2013).

Experiments:
fibronectin = assay: Real-time RT-PCR in PMCs from dialysed rats; format: in vivo, rat; details: peritoneal cells from rats dialysed four weeks, aliskiren 0.1 or 1 mg/Kg, FIG. 17
Protocol: The rats were exposed daily for four weeks to carrier (saline serum), 1.5% PDF, 2.3% PDF or 4.5% PDF supplemented by carrier, 0.1 mg/Kg aliskiren or 1 mg/Kg aliskiren. The data is expressed as mean±SEM, n=6 rats per group.* p<0.05, compared to the group treated with carrier in the absence of aliskiren (carrier). # p<0.05, compared to their respective groups treated with PDFs in the absence of aliskiren. […]
At the end of the experimental period (four weeks), 30 ml of a commercial PDF with 2.3% glucose (Fresenius Medical Car, Bad Homburg, Germany) was administered intraperitoneally using a 22G needle. […] Their body weight was measured at the start and end of the experimental period. […]
The blood and dialysate samples were centrifuged and stored at −20° C. The concentrations of creatinine and glucose in the serum and dialysate were measured using enzymatic methods. The peritoneal transport of solutes was calculated, on one hand, as the glucose concentration in the dialysate 2 hours after the PET relative to the initial glucose concentration in the PDF (D2/D0 glucose) and, on the other, as the dialysate/plasma creatinine concentration ratio (D2/P2 creatinine) 2 h after the PET. […]
The RNA expression was evaluated by real-time RT-PCR in PMCs. […] RNA quality and concentration was evaluated by spectrophotometry (Infinite 200, Tecan, Salzburg, Austria) using 1 μl of the RNA sample. […]

[1] = system: reactive oxygen species (ROS) in rat PMCs; assay: Reactive oxygen species by flow cytometry (DCF); format: cell-based; details: D-glucose 50 mM and 83 mM, 8 hours, aliskiren 10-100 μM, FIG. 6
Protocol: The cells were incubated in D-glucose at 50 mM (A) and 83 mM (B) for 8 hours in the presence or absence of aliskiren (10-100 μM) and dichlorofluorescein (DCF) intensity was measured using flow cytometry, as described in Material and Methods. The data is expressed as mean±SEM, n=3. * p<0.05 compared to untreated cells (control). # p<0.05, compared to cells treated with D-glucose in the presence of carrier (0).
Rat peritoneal mesothelial cells were isolated by enzymatic digestion in accordance with protocols described in Hjelle J T, Golinska B T, Waters D C, et al. Perit Dial Int 1989; 9: 341-7. Briefly, female rats weighing 200-400 g of the Spragle-Dawley strain were sacrificed pursuant to Royal Decree 1201/2005, of 10 Oct., on protection of animals used for experimental and other scientific purposes. The abdominal cavity was quickly opened and the abdominal wall (peritoneum and smooth muscle) extracted under sterile conditions. […]
After washing with PBS, the cells were incubated with 5.6-chloromethyl-2,7-dichlorodihydrofluorescein diacetate (CM-H2DCFDA, Invitrogen) for 15 minutes at 37° C., following the standard protocol (Lee H B, 2004). […] The production of reactive oxygen species was calculated on the basis of evaluation of 10,000 cells per experimental condition.

COCCCOc1cc(C[C@@H](C[C@H](N)[C@@H](O)C[C@H](C(=O)NCC(C)(C)C(N)=O)C(C)C)C(C)C)ccc1OC [aliskiren]
RNAm expression of fibronectin (fibronectin): increased | production of reactive oxygen species [1]: prevented
